From patent publication US20080269202A1, “Novel 2,3-benzodiazepine derivatives and their use as antipsychotic agents” (Teva Pharmaceutical Industries Ltd., priority 2007, published 2008) come the findings set out here.

In one data set the test system is catalepsy. As to the kind of experiment: catalepsy test in rats. Type of data set: in vivo, CDBR rats. The settings on record: sum of 8 readings over 4 hours. From the text: In order to investigate the potential side effect profile, the catalepsy test in rats has been carried out according to Costall and Naylor (Costall, B., Naylor, R. J. Arzneimittelforschung/Drug Res., 1973, 23, 674).
Catalepsy is defined as a failure to correct an externally imposed, unusual posture over a prolonged time. Neuroleptics which have direct inhibitory action on the nigrostriatal dopamine system induce catalepsy. It may be reflected by the Parkinson-like extrapyramidal symptoms seen clinically with administration of classical antipsychotics. The experiments were carried out in male CDBR rats weighing 300-400 g. The volume of administration was 0.25 ml/100 g body weight. The animals were starved for 16 hours before treatment, water was delivered ad libitum. After intraperitoneal administration of the test substances, the forepaws of the rats were placed on a horizontal stainless steel bar elevated to 10 cm high, while the hind paws remained on a metal plate. The semi-automatic 5-channel catalepsy meter measured the time spent in this unusual posture by an electronic stop-clock. The catalepsy time was scored from 0 to 5 according to the time spent in the unusual posture. […] Means of groups were calculated.

The target of a further data set is T1, Melatonin (MT2) receptor (Homo sapiens, UniProt P49286).
T1 sequence (P49286 1-362): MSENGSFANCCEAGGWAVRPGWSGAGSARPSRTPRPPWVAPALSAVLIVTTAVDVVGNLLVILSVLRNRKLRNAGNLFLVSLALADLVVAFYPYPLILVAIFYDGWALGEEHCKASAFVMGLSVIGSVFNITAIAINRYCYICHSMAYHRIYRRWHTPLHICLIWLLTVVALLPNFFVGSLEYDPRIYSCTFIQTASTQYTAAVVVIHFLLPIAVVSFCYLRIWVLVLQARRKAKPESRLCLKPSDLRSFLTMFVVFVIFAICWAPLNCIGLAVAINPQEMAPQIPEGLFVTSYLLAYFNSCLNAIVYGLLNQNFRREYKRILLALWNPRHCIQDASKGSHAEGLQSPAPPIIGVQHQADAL
As to the kind of experiment: in vitro inhibition, melatonin (MT2) receptor. As to conditions: conc: 10 μM. It counts as binding.

Data set [1] relates to apomorphine-induced climbing. Description: apomorphine-induced climbing test in mice. It counts as in vivo, CD1 mice. As to conditions: Mus musculus, read-out: Climbing ED50 (mg/kg ip.). Here is the method:
(§1) Anti-apomorphine effects were investigated in the climbing test in mice mediated through the mesolimbic and stereotypy test in rats mediated through the nigrostriatal system. Conventional antipsychotics antagonize both apomorphine-induced behaviours, while known atypical antipsychotics are weaker against apomorphine stereotypy.
The climbing test was carried out according to Protais et al. (Protais, P. et al. Psychopharmacologia, 1976, 50, 1.) Stereotyped behavior was induced in food deprived (for 16 hours) male CD1 mice weighing 20-25 g body by apomorphine HCl (SIGMA) in a s.c. dose of 2 mg/kg. Mice were placed individually into cylinders having 12 cm diameter and consisting of vertical bars of 2 mm diameter where apomorphine treated animals tended to adopt a vertical position in contrary to vehicle treated controls. Test substances were applied ip. 30 min before apomorphine.
10 and 20 min after apomorphine treatment the climbing behaviour was evaluated by scores of 0-2. 10 mice/group were used. The scores of the two readings were summed individually, meaned and compared to the control. The ED50 values were calculated by Litchfield-Wilcoxon's method (Litchfield Jr. J. T., Wilcoxon, F. J. Pharmacol. Exp. Ther. 1949, 96, 49,).

Data set [2] concerns apomorphine-induced stereotyped behavior. Description: apomorphine-induced stereotypy. Type of data set: in vivo, CD1 mice. As to conditions: Mus musculus, read-out: Stereotypy ED50 (mg/kg po.).
Excerpt: as §1
Apomorphine-induced stereotypy was investigated according to Costall and Naylor (B. Costall and R. J. Naylor, Eur. J. Pharmacol. 1972, 18, 95) in male CD1 mice of 20-25 g body weight after 16 hours deprivation of food. 30 min before treatment mice were individually placed into small, transparent acrylic cages for habituation. Test substances were administered orally in a volume of 0.1 ml/10 g. 30 min later mice were treated with apomorphine HCl (SIGMA) in a subcutaneous dose of 2 mg/kg. […] The scores were summed individually, meaned and compared to the control group. The ED50 values were calculated by Litchfield-Wilcoxon's method (J. Pharmacol. Exp. Ther. 1949, 96, 49,).

Data set [3] deals with PCP-induced hypermotility. As to the kind of experiment: PCP-induced hypermotility (motor activity meter) in mice. It counts as in vivo. The settings on record: Mus musculus, read-out: PCP-hypermotility ED50 mg/kg po. From the text: Alterations in the mesocortical dopaminergic tract are thought to be responsible for the negative symptoms of schizophrenia (flattening of affect, poverty of speech, lack of volition and drive, loss of feeling, social withdrawal and decreased spontaneous movement). The best animal model of these symptoms is the behavioral changes induced by PCP (phencyclidine). The PCP-induced stereotypy and hypermotility was investigated in mice according to Ljungberg and Ungerstedt (Ljungberg, T., Ungerstedt, U. Pharmacol. Biochem. Behav., 1985, 23, 479,) and Jawitt (Jawitt, D. C. Amer. J. Psychiatry, 1991, 145, 1301). The stereotypy experiments were carried out in male CD1 mice weighing 20-25 g. The animals were starved for 16 hours before treatment without limitation of water availability. In the stereotypy studies, 30 min before treatment, mice were individually placed into small, transparent acrylic cages for habituation. Test substances were administered orally in a volume of 0.1 ml/10 g. 30 min later mice were treated with PCP with an intraperitoneal dose of 7 mg/kg. Stereotyped behavior was observed every 5th min for 60 min and scored from 0 to 4. The scores were summed individually, averaged and compared to the control group.
The motor activity was measured in a 4-channel activity meter. The apparatus consisted of acrylic cages (40×40×32 cm) equipped with 16 pairs of infrared photocells. The photocells' beam, when broken, signaled a count, which was then recorded by a computer. A 5 mg/kg intraperitoneal dose of PCP was administered 5 min before the experiment. This dose of PCP induces 110-120% increase of the spontaneous motor activity. Test substances were administered orally 15 min before experiment, and mice were investigated individually in the experimental cages for 60 min. 10 mice/group were used. The total counts for each experimental group were compared to the vehicle treated control group.
In both studies the ED50 values were calculated by the Litchfield-Wilcoxon's method (J. Pharmacol. Exp. Ther. 1949, 96, 49).

The mark [4] stands for this setting: mice, ip. 30 min before apomorphine 2 mg/kg s.c.
Setting [5] is: mice, po. 30 min before apomorphine 2 mg/kg s.c.
Setting [6] is: mice, po. 15 min before experiment, PCP 5 mg/kg ip.

Like-named read-outs stand apart in the source and are kept apart here.

`COc1cc2c(cc1OC)C(c1ccc(N)c(C)c1)=NN(c1nncs1)[C@H](C)C2` [Example 110]: the melting point amounted to 143 °C. Also, the Catalapsy scores in the data set on catalepsy (dose 10 mg/kg ip) is reported as 10:0.375. The same compound registered an inhibition at 10 µM at Melatonin (MT2) receptor of 95%. Besides, the ED50 in data set [1] (setting [4]) turned out to be 14.6 mg/kg. Besides, the ED50 in data set [2] (setting [5]) turned out to be 3.5 mg/kg. For the same compound, in data set [3] (setting [6]), the ED50 came to 1.4 mg/kg.
Regarding `CNC(=O)N1N=C(c2ccc(N)c(C)c2)c2cc(OC)c(OC)cc2C[C@H]1C` [Example 123], the melting point is 147 °C. Moreover, in the data set on catalepsy (dose 40 mg/kg ip), the Catalapsy scores is on record as 40:0. At Melatonin (MT2) receptor, this compound had an inhibition at 10 µM of 64%. In data set [1], the ED50 was 9.2 mg/kg. Moreover, in data set [2], the ED50 came out at 7.52 mg/kg. Further, the ED50 in data set [3] was 0.62 mg/kg.
`COc1cc2c(cc1OC)C(c1ccc(N)c(C)c1)=NN(c1ncon1)[C@H](C)C2` [Example 104]: the Catalapsy scores in the data set with catalepsy (dose 40 mg/kg ip) was 40:0. This compound displayed an inhibition at 10 µM at Melatonin (MT2) receptor of 80%. In addition, the ED50 in data set [1] (setting [4]) came to 7.7 mg/kg; in data set [2] (setting [5]), 6.97 mg/kg; in data set [3] (setting [6]) it was 0.73 mg/kg.
`CNC(=O)N1N=C(c2ccc(N)cc2)c2cc(OC)c(OC)cc2C[C@H]1C` [Example 121] displayed a melting point of 140 to 144 °C. For the same compound, the Catalapsy scores in the data set on catalepsy (dose 10 mg/kg ip) is 10:0. Testing at 10 µM against Melatonin (MT2) receptor gave an inhibition of 80%. In addition, in data set [1], the ED50 came out at 4.31 mg/kg. The ED50 in data set [2] is 3.54 mg/kg. The ED50 in data set [3] stood at 0.87 mg/kg.
